Reference: article PMC3532212 (PLoS ONE, 2012)

System: anesthetized rats
Test: Left ventricular contractility (LV dP/dtmax) in anesthetized rats
Assay type: in vivo
Details: anesthetized rat
Method: The cardiovascular effects of FTY720 and BAF312 were tested in anesthetized rats (180–200 g). In brief, male Sprague Dawley rats (Charles River) were anesthetized with Inactin (110 mg/kg i.p.) and a tracheotomy performed. The femoral artery and veins were catheterized for measurement of mean arterial pressure and heart rate, collection of blood samples at 20-min intervals (0.2 mL/sample), and for compound infusion/hydration as previously described, [24]; blood samples were also withdrawn in vehicle-treated control rats. FTY720, infused as a hydrochloride salt (0.1, 0.3, 1.0 mg/kg/20-min free base equivalent solubilized in a 100% PEG-400 vehicle), or BAF312 (0.5, 1.5, 5.0 mg/kg/20-min solubilized in a 100% PEG-400 vehicle) were administered via three escalating 20-min infusions (0.011 mL/min) followed by a 1-hr post-treatment period. […] In a separate group of anesthetized rats in which left ventricular (LV) contractility was also recorded with a Millar pressure transducer introduced into the left ventricle, BAF312 was infused in the same dosing regimen as the studies described above (0.5, 1.5, 5.0 mg/kg/20-min solubilized in a 100% PEG-400 vehicle) and effects on LV dP/dtmax were recorded.

decrease in dP/dt (BAF312, 5.0 mg/kg dose group): not maintained
LV dP/dtmax, below values in vehicle control animals (BAF312, end of the 1.5 mg/kg i.v. infusion): −5±4%
SMILES: CCc1cc(/C(C)=N/OCc2ccc(C3CCCCC3)c(C(F)(F)F)c2)ccc1CN1CC(C(=O)O)C1 [BAF312]
